# Test results from patent US11660293B2, “Substituted 2-azabicyclo[3.1.1]heptane and 2-azabicyclo[3.2.1]octane derivatives as orexin receptor antagonists” (Chronos Therapeutics Limited, priority 2017, dated 2023).
# Experiments:
# [1] = target: T1, human Orexin type 1 receptors (Homo sapiens (Human), UniProt O43613); assay: Scintillation Proximity Assay (SPA) binding assay, [3H]SB-674042 displacement, CHO-hOX1 membranes; details: for Ki: read-out: OX1 pKi (SPA binding) (converted)
# [2] = target: T2, human Orexin type 2 receptors (Homo sapiens (Human), UniProt O43614); assay: Scintillation Proximity Assay (SPA) binding assay, [3H]EMPA displacement, HEK-hOX2 membranes; details: for Ki: read-out: OX2 pKi (SPA binding) (converted)
# T2 sequence (O43614 whole entry): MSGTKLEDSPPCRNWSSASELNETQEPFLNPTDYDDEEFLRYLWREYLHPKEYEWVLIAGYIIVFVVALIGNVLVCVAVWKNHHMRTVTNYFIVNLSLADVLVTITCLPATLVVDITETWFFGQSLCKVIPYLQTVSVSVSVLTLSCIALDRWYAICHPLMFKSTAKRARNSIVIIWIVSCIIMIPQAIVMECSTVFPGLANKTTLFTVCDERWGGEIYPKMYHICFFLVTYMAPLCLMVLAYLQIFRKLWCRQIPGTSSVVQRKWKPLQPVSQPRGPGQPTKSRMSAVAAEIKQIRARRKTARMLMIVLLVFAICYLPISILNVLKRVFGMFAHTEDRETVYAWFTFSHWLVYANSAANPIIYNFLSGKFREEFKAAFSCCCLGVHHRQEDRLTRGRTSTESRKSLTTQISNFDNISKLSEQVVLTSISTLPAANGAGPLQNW
# [3] = Measurement of brain fraction unbound (equilibrium dialysis); assay type: in vitro ADME; details: pH 7.4, rat brain homogenate, 37° C., read-out: FU brain (%, rat)
# Description: Measurement of Brain Fraction Unbound (Equilibrium Dialysis)
# Brain fractions unbound were determined using equilibrium dialysis in a 96-well format as described in Kalvass and Maurer, 2002. Brain homogenates were prepared using 2 ml/g CSF surrogate (7.30 g/l NaCl, 186.4 mg/l KCl, 239.9 mg/l MgCl2, 185.2 mg/l CaCl2), and 536.0 mg/l Na2HPO4.7H2O, pH 7.4). Dialysis membranes (12-14-kDA cutoff) obtained from Spectrum Laboratories Inc. (Rancho Dominguez, Calif.) were conditioned in water (HPLC grade) for 60 min, followed by 20 min in 20% ethanol, and 15 min in CSF surrogate.
# Assay compound concentrations were 5 μM. Diluted brain homogenate was spiked with the compound of interest, and 150-μl aliquots were loaded into the 96-well equilibrium dialysis apparatus and dialyzed against an equal volume of CSF surrogate. Equilibrium was achieved by incubating the 96-well equilibrium dialysis apparatus in a temperature-controlled incubator at 37° C. for 5 h, using an orbital shaker at 125 rpm. At the end of the incubation period, 50-μl aliquots of brain homogenate and buffer were transferred to a 96-well plate, and the composition in each tube was balanced with control fluid to equalize the brain and buffer volumes. Sample extraction was performed by addition of 400 μl of acetonitrile containing internal standard (rolipram). The samples were then vortex-mixed and centrifuged, and 100 μl of supernatants was transferred into a 96-well plate, diluted with 200 μl of 16% acetonitrile/water, and analyzed by liquid chromatography-tandem mass spectrometry (LC-MS/MS).
# The brain unbound fraction (FU brain) was calculated from the ratio of analyte/internal standard peak area ratios determined in buffer versus brain homogenate samples using equation (1), which accounts for the effect of tissue dilution on unbound fraction (Kalvass and Maurer, 2002):
# [formula] where D is the dilution factor in brain homogenate and fu-diluted is the measured free fraction of diluted brain tissue. Results
# [4] = target: T2, human Orexin type 2 receptors; assay: Intracellular calcium measurement (FLIPR), antagonism of Orexin-A at EC80 in CHO-hOX2 cells
# [5] = target: T1, human Orexin type 1 receptors; assay: Intracellular calcium measurement (FLIPR), antagonism of Orexin-A at EC80 in CHO-hOX1 cells
# T1 sequence (O43613 whole entry): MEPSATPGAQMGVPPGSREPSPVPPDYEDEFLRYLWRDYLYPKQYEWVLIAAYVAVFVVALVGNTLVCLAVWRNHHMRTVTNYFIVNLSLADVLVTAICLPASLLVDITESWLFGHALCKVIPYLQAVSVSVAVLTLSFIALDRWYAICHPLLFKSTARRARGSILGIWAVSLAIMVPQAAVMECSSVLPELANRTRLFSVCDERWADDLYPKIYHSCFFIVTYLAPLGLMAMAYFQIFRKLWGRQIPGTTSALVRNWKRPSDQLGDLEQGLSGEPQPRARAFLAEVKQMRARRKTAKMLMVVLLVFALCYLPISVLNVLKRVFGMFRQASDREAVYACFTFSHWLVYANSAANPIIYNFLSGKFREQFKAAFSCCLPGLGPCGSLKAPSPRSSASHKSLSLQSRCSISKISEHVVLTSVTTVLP
SMILES,"OX1 pKi (SPA binding) ([1]; Table 2, [3H]SB-674042 2 nM)","OX2 pKi (SPA binding) ([2]; Table 2, [3H]EMPA 2 nM)","fraction unbound at 5 h, 5 μM [3]",also measured
"Cc1ccc(-n2nccn2)c(C(=O)N2C3CC(C3)[C@@H](C)C2CNc2cnc(C(F)(F)F)cn2)n1 (mixture of isomers) [Example 165, cis-N-({4-methyl-2-[6-methyl-3-(2H-1,2,3-triazol-2-yl)pyridine-2-carbonyl]-2-azabicyclo[3.1.1]heptan-3-yl}methyl)-5-(trifluoromethyl)pyrazin-2-amine]",7.63,4.83,0.0477,–
"C[C@@H]1C2CC(C2)N(C(=O)c2nn(C)cc2-c2ncccn2)C1CNc1ccc(C(F)(F)F)cn1 (mixture of isomers) [Example 213, cis-N-({4-methyl-2-[1-methyl-4-(pyrimidin-2-yl)-1H-pyrazole-3-carbonyl]-2-azabicyclo[3.1.1]heptan-3-yl}methyl)-5-(trifluoromethyl)pyridin-2-amine]",7.91,4.39,0.0876,–
Cc1nc(C(=O)N2C(COc3ccc(F)cc3)CC3CC2C3)c(-c2ccccc2)s1 (racemic) [Example 1],–,–,–,"Ki [4]: 295 nM; Ki [5]: 6.31 nM; OX1 pKi (SPA binding) ([1]; Table 1, [3H]SB-674042 2 nM): 8.14; OX2 pKi (SPA binding) ([2]; Table 1, [3H]EMPA 2 nM): 6.97"
"Cc1ccc(-c2ncccn2)c(C(=O)N2C3CC(C3)[C@@H](C)[C@@H]2COc2ccc(F)cc2)n1 (single isomer, unassigned) [Example 93, (3S,4S or 3R,4R)-3-(4-fluorophenoxymethyl)-4-methyl-2-[6-methyl-3-(pyrimidin-2-yl)pyridine-2-carbonyl]-2-azabicyclo[3.1.]heptane]",–,–,0.0258,"Ki ([1]; Table 1, [3H]SB-674042 2 nM): 1.95 nM; Ki ([2]; Table 1, [3H]EMPA 2 nM): 407 nM"
"Cc1ccc(-n2nccn2)c(C(=O)N2C3CC(C3)[C@H](C)C2COc2ccc(F)cc2)n1 (single isomer, unassigned) [Example 105, (3S,4S or 3R,4R)-3-[(4-fluorophenoxy)methyl]-4-methyl-2-[6-methyl-3-(2H-1,2,3-triazol-2-yl)pyridine-2-carbonyl]-2-azabicyclo[3.1.1]heptane]",–,–,0.0116,"Ki ([1]; Table 1, [3H]SB-674042 2 nM): 6.31 nM; Ki ([2]; Table 1, [3H]EMPA 2 nM): 1320 nM"
"Cc1nc(C(=O)N2C3CC(C3)[C@H](C)C2COc2ccc(F)cc2)c(-c2ncccn2)s1 (single isomer, unassigned) [Example 115, (3R,4R) or (3S,4S)-3-[(4-fluorophenoxy)methyl]-4-methyl-2-[2-methyl-5-(pyrimidin-2-yl)-1,3-thiazole-4-carbonyl]-2-azabicyclo[3.1.1]heptane]",8.5,5.93,0.0151,–
"Cc1ccc(-n2nccn2)c(C(=O)N2C3CC(C3)[C@@H](C)C2CNc2cnc(C(F)(F)F)cn2)n1 (single isomer, unassigned) [Example 167, N-{[(3R,4S) or (3S,4R)-4-methyl-2-[6-methyl-3-(2H-1,2,3-triazol-2-yl)pyridine-2-carbonyl]-2-azabicyclo[3.1.1]heptan-3-yl]methyl}-5-(trifluoromethyl)pyrazin-2-amine]",8.12,5.13,0.0593,–
"Cc1ccc(-n2nccn2)c(C(=O)N2C3CC(C3)[C@@H](C)C2CNc2ccc(C(F)(F)F)cn2)n1 (single isomer, unassigned) [Example 183, N-{[(3R,4S) or (3S,4R)-4-methyl-2-[6-methyl-3-(2H-1,2,3-triazol-2-yl)pyridine-2-carbonyl]-2-azabicyclo[3.1.1]heptan-3-yl]methyl}-5-(trifluoromethyl)pyridin2-amine]",8.31,5.26,0.0256,–
"Cc1ccc(-n2nccn2)c(C(=O)N2C3CC(C3)[C@@H](C)C2CNc2nc3cccnc3s2)n1 (single isomer, unassigned) [Example 186, N-({(3R,4S) or (3S,4R)-4-methyl-2-[6-methyl-3-(2H-1,2,3-triazol-2-yl)pyridine-2-carbonyl]-2-azabicyclo[3.1.1]heptan-3-yl}methyl)-[1,3]thiazolo[5,4-b]pyridin-2-amine]",8.42,5.36,0.147,–
"C[C@@H]1C2CC(C2)N(C(=O)c2cc(Cl)ccc2-n2nccn2)C1CNc1cnc(C(F)(F)F)cn1 (single isomer, unassigned) [Example 205, N-({(3R,4S) or (3S,4R)2-[5-chloro-2-(2H-1,2,3-triazol-2-yl)benozyl]-4-methyl-2-azabicyclo[3.1.1]heptan-3-yl}methyl)-5-(trifluoromethyl)pyrazin-2-amine]",8.59,5.34,0.0089,–
"C[C@@H]1C2CC(C2)N(C(=O)c2nn(C)cc2-c2ncccn2)C1CNc1ccc(C(F)(F)F)cn1 (single isomer, unassigned) [Example 215, N-{[(3R,4S) or (3S,4R)-4-methyl-2-{1-methyl-4-(pyrimidin-2-yl)-1H-pyrazole-3-carbonyl]-2-azabicyclo[3.1.1]heptan-3-yl]methyl}-5-(trifluoromethyl)pyridin-2-amine]",8.15,4.79,0.0761,–
"C[C@@H]1C2CC(C2)N(C(=O)c2cc(F)ccc2-n2nccn2)C1CNc1cnc(C(F)(F)F)cn1 (single isomer, unassigned) [Example 223, N-{[(3R,4S) or (3S,4R)-2-[5-fluoro-2-(2H-1,2,3-triazol-2-yl)benzoyl]-4-methyl-2-azabicyclo[3.1.1]heptan-3-yl]methyl}-5-(trifluoromethyl)pyrazin-2-amine]",8.13,4.98,0.022,–
"C[C@@H]1C2CC(C2)N(C(=O)c2cc(F)ccc2-n2nccn2)C1CNc1nc2cccnc2s1 (single isomer, unassigned) [Example 230, N-{[(3R,4S) or (3S,4R)-2-[5-fluoro-2-(2H-1,2,3-triazol-2-yl)benzoyl]-4-methyl-2-azabicyclo[3.1.1]heptan-3-yl]methyl}-[1,3]thiazolo[5,4-b]pyridin-2-amine]",8.46,5.32,0.0438,–
"C[C@@H]1C2CC(C2)N(C(=O)c2cc(C#N)ccc2-n2nccn2)C1CNc1nc2cccnc2s1 (single isomer, unassigned) [Example 233, 3-[(3R,4S) or (3S,4R)-4-methyl-3-[({[1,3]thiazolo[5,4-b]pyridin-2-yl}amino)methyl]-2-azabicyclo[3.1.1]heptane-2-carbonyl]-4-(2H-1,2,3-triazol-2-yl)benzonitrile]",8.41,5.11,0.066,–
Cc1nc(C(=O)N2C(COc3ccc(F)cn3)CC3CC2C3)c(-c2ccccc2)s1 (stereo not shown) [Example 24],–,–,–,Ki [4]: 759 nM; Ki [5]: 46.8 nM
Cc1ccc(-c2nccs2)c(C(=O)N2C(COc3ccc(F)cn3)CC3CC2C3)n1 (stereo not shown) [Example 31],–,–,–,Ki [4]: 776 nM; Ki [5]: 97.7 nM
Cc1ccc(-c2ncccn2)c(C(=O)N2C3CC(C3)[C@@H](C)C2COc2ccc(F)cn2)c1 (stereo partly shown) [Example 74],–,–,–,Ki [4]: 589 nM; Ki [5]: 28.8 nM
